Measured values as given in patent US9845311B2, “Nrf2 activating compounds and uses thereof” (RIGEL PHARMACEUTICALS, INC., priority 2016, dated 2017).
Counter-ions that a name gives are not always drawn.

Legend:
[1] = system: NrF2 (Nuclear factor (erythroid-derived 2)-like 2); assay: NrF2 activation in a whole cell nuclear translocation assay; format: cell-based
Description: Compounds are tested in a NrF2 (Nuclear factor (erythroid-derived 2)-like 2) translocation assay by adapting the methods set forth in U.S. Pat. No. 8,101,373, the disclosure of which is incorporated herein by reference. A result of NrF2 activation in the assay by the present compounds is an indication of their anti-inflammatory activity. […] In addition to monomethyl fumarate and dimethyl fumarate, bardoxolone methyl may be used as a positive control.

[2] = Glutathione depletion assay (Michael addition to reduced glutathione, followed by 1H NMR); format: physicochemical; conditions: 2 equiv. reduced glutathione, d6-DMSO, 35° C.
Text: See, for example, Lehmann et al. Dimethyfumarate Induces Immunosuppression via Glutathione Depletion and Subsequent Induction of Heme Oxygenase 1, Journal of Investigative Dermatology (2007) 127, 835-845. Accordingly, the present compounds may be assessed in vitro by reaction with glutathione as follows:
(with the top securely fastened).
In all the above cases, dis-appearance of the alkene proton signals from the starting material are used to determine the extent of Michael reaction with glutathione.
As would be understood by those of skill in the art, the above experiments can be repeated by varying the equivalents of reduced glutathione (0.5 to 2 equivalents); the reactions can also be run in a mixture of d6-DMSO and D2O; and the temperature of the reaction can also be varied from room temperature to 35° C. (35° C. being used to mimic body temperature). As used herein “majority reaction” means a greater than 50% reduction in alkene proton signal as observed by ^1H NMR.

[3] = system: experimental autoimmune encephalomyelitis (EAE); assay: Experimental autoimmune encephalomyelitis (EAE) animal model; format: in vivo, mice; conditions: dosed at 60 mg/kg beginning on the day of immunization

## COC(=O)/C=C/C(=O)O [Monomethyl fumarate, monomethylfumarate]
[1]
  EC50: ~127 µM

## COC(=O)/C=C/n1nnn(C)c1=O [methyl (E)-3-(4-methyl-5-oxo-4,5-dihydro-1H-tetrazol-1-yl)acrylate]
[2]
  time to majority reaction with glutathione (greater than 50% reduction in alkene proton signal by 1H NMR): ≤ 30 h

## COC(=O)/C=C/n1nn[nH]c1=O [methyl (E)-3-(5-oxo-4,5-dihydro-1H-tetrazol-1-yl)acrylate]
[2]
  time to majority reaction with glutathione (greater than 50% reduction in alkene proton signal by 1H NMR): ≤ 30 h
[3]
  onset of disease paralysis: significantly prevents the onset of disease paralysis
